Data set [1] addresses Cytochrome P450 2C19 (Homo sapiens, UniProt P33261). Description: Inhibition of CYP2C19 (unknown origin). In kind it is ADME.
Data set [2] concerns the target T1, Cytochrome P450 2C8 (Homo sapiens, UniProt P10632).
T1 sequence (P10632 whole entry): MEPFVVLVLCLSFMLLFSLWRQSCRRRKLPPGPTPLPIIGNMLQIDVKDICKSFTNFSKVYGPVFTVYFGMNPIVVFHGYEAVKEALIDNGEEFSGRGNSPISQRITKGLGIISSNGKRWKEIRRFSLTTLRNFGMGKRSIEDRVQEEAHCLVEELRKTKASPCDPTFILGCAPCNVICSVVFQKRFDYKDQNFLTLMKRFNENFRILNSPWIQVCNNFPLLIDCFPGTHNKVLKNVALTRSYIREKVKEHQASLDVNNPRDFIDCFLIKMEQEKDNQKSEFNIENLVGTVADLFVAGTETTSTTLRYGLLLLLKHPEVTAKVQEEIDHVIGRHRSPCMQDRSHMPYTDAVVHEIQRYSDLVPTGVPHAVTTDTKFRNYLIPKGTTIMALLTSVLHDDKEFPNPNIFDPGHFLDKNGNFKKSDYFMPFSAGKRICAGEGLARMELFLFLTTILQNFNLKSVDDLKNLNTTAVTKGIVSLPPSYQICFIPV
Description: Inhibition of CYP2C8 (unknown origin). In kind it is ADME.

Data set [3] in a line: Cytotoxicity against PHA-activated T-cells (unknown origin) assessed as inhibition of IL-2 induced cell proliferation measured after 72 hrs by MTS assay. The class given is toxicity, cell-based. (Formazan colour is commonly taken as a measure of viable cells.)
The target of data set [4] is Voltage-gated inwardly rectifying potassium channel KCNH2 (Homo sapiens, UniProt Q12809). Description: Inhibition of hERG. In kind it is toxicity. Conditions: for inhibition (INH): human. (In general: Block of hERG is tested as a sign of cardiac risk.)
The target of data set [5] is Cytochrome P450 2D6 (Homo sapiens, UniProt P10635). In words: Inhibition of CYP2D6 (unknown origin). The class given is ADME.
Data set [6] concerns the target T2, Cytochrome P450 3A4 (Homo sapiens, UniProt P08684). Description: Inhibition of CYP3A4 (unknown origin) using BFC as substrate preincubated with compound followed by substrate addition at 30 mins. The class given is ADME.
Data set [7] concerns the target T3, Cytochrome P450 1A2 (Homo sapiens, UniProt P05177).
T3 sequence (P05177 whole entry): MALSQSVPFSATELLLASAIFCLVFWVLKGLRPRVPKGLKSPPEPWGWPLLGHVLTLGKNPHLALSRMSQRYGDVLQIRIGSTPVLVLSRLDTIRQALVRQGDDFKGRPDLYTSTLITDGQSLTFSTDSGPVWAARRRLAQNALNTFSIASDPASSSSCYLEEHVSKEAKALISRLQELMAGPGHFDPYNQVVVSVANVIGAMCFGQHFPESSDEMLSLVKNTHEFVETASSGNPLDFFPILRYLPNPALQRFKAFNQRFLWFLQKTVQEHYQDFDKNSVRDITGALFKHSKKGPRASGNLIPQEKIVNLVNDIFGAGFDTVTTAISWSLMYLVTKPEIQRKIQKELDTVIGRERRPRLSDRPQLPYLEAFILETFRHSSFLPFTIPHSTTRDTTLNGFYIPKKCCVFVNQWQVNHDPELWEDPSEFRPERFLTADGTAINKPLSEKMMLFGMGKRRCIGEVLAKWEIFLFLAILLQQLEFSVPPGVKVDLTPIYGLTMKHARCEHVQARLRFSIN
Description: Inhibition of CYP1A2 (unknown origin). The class given is ADME.

The nature of data set [8]: Metabolic stability in mouse liver microsomes assessed as compound remaining at 0.5 uM incubated for 10 mins in presence of NADPH by UV absorbance based assay. In kind it is ADME, Microsome. Conditions: read-out: Stability; call rule not given here. For orientation: Microsomes from liver hold many membrane-bound enzymes, among them those of drug oxidation.
Data set [9] has as its target T2, Cytochrome P450 3A4. Description: Inhibition of CYP3A4 (unknown origin) using BFC as substrate. The class given is ADME.
Data set [10] concerns the target T2, Cytochrome P450 3A4. Description: Inhibition of CYP3A4 (unknown origin) using BFC as substrate preincubated with compound followed by substrate addition at 5 mins. In kind it is ADME.
The target of data set [11] is T4, Toll-like receptor 7 (Mus musculus, UniProt P58681).
T4 sequence (P58681 whole entry): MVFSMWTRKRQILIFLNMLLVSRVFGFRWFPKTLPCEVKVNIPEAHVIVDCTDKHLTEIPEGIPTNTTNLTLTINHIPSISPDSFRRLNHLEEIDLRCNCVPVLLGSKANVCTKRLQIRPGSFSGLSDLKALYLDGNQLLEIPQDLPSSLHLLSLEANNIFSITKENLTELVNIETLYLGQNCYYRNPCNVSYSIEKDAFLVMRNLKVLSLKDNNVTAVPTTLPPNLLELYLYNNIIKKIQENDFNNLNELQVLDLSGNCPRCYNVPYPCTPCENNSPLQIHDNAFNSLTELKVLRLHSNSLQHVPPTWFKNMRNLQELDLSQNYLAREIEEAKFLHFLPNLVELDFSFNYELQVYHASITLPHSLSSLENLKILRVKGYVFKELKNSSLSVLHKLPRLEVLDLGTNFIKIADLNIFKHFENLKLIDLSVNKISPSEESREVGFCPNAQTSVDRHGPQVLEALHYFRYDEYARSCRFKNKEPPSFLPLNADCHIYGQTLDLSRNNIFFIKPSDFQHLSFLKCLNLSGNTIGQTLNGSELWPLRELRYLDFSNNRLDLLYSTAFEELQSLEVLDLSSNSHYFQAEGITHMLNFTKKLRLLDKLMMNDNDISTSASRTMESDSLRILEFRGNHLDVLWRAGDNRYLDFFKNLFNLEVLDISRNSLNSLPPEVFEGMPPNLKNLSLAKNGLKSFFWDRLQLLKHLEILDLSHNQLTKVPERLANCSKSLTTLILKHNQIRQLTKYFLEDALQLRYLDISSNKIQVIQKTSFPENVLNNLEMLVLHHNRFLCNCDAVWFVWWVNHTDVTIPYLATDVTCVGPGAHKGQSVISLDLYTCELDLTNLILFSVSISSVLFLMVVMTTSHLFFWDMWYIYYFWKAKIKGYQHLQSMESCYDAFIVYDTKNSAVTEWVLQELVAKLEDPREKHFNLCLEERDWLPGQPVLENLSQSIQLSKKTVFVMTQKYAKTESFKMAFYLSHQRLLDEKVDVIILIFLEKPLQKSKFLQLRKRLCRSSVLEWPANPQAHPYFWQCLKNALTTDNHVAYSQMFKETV
Description: Agonist activity at mouse TLR7.

Data set [12] has as its target T5, Toll-like receptor 7 (Homo sapiens, UniProt Q9NYK1).
T5 sequence (Q9NYK1 whole entry): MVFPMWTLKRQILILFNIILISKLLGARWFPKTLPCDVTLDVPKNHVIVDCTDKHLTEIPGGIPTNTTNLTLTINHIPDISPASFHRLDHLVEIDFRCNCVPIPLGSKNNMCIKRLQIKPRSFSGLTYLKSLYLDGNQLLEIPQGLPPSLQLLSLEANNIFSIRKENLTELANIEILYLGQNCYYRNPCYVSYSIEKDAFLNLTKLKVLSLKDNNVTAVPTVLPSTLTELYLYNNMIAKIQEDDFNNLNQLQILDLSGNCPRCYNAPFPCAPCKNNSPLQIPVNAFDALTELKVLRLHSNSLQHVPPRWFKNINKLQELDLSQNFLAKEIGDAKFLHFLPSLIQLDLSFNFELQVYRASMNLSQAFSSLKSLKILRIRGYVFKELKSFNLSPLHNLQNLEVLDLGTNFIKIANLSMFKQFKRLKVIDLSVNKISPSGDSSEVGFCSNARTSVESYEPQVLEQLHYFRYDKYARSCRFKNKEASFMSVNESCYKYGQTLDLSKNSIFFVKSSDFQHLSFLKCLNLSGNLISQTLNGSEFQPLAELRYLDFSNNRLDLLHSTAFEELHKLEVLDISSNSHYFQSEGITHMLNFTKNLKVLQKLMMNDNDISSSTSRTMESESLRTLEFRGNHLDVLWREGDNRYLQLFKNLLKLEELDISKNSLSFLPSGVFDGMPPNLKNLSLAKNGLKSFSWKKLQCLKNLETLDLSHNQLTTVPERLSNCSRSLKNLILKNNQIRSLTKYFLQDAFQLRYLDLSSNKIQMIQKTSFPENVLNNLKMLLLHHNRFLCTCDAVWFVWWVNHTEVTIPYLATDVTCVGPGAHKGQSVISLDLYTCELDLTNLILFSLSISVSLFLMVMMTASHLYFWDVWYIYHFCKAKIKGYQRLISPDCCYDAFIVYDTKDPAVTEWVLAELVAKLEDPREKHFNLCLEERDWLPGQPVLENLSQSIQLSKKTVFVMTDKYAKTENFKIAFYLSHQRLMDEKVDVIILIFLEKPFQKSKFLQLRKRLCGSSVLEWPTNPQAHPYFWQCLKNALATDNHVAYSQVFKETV
In words: Agonist activity at human TLR7 in HEK-Blue hTLR7 cells harboring SEAP reporter transgene incubated for 18 hrs by quanti-blue reagent based assay. In kind it is cell-based.

The target in data set [13] is Cytochrome P450 2C9 (Homo sapiens, UniProt P11712). In words: Inhibition of CYP2C9 (unknown origin). The class given is ADME.
The nature of data set [14]: Metabolic stability in human liver microsomes assessed as compound remaining at 0.5 uM incubated for 10 mins in presence of NADPH by UV absorbance based assay. In kind it is ADME, Microsome. Conditions: read-out: Stability.

The structures appear in SMILES notation.

Sequence of Voltage-gated inwardly rectifying potassium channel KCNH2 (Q12809 whole entry): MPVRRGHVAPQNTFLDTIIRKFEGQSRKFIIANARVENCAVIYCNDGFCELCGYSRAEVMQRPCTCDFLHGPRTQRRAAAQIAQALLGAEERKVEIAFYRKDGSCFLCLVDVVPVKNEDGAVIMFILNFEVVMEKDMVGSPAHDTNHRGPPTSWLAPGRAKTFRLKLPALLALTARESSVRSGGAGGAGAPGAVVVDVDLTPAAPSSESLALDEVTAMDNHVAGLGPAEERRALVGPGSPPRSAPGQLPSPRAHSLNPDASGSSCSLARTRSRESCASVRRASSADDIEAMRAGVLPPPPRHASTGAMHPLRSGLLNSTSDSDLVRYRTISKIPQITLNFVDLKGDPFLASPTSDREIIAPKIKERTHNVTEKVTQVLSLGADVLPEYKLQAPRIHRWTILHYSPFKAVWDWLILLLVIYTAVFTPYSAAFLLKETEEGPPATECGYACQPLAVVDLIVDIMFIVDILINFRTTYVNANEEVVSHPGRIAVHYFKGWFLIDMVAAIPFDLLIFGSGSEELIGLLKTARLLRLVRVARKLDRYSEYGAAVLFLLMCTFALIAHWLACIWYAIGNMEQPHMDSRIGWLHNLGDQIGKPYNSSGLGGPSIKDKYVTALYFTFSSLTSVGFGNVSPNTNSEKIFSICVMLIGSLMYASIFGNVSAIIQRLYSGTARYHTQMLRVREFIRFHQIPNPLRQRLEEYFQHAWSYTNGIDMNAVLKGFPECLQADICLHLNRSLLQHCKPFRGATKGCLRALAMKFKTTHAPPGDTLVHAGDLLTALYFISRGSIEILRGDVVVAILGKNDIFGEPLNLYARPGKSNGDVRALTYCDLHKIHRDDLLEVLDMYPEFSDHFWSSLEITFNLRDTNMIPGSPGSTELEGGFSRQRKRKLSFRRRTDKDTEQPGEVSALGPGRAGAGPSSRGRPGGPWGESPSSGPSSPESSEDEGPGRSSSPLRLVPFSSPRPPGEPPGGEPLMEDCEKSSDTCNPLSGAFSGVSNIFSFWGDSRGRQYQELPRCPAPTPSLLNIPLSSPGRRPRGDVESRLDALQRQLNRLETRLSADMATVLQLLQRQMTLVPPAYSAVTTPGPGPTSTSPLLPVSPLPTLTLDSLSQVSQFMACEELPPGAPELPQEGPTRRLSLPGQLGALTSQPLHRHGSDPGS
Sequence of Cytochrome P450 2C19 (P33261 whole entry): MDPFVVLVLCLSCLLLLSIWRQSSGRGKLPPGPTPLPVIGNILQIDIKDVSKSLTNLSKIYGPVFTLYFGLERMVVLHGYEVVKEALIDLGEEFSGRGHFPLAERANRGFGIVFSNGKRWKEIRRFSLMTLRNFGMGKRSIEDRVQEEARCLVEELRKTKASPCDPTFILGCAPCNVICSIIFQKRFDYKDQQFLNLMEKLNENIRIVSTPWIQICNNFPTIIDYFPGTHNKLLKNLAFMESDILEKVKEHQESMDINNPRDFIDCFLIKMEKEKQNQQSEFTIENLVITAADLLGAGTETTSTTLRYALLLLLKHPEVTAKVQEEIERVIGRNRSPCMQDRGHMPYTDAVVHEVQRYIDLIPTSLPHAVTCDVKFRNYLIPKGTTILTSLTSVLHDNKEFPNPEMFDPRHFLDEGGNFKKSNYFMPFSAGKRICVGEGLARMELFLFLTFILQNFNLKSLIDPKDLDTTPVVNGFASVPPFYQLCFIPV
Sequence of Cytochrome P450 2C9 (P11712 whole entry): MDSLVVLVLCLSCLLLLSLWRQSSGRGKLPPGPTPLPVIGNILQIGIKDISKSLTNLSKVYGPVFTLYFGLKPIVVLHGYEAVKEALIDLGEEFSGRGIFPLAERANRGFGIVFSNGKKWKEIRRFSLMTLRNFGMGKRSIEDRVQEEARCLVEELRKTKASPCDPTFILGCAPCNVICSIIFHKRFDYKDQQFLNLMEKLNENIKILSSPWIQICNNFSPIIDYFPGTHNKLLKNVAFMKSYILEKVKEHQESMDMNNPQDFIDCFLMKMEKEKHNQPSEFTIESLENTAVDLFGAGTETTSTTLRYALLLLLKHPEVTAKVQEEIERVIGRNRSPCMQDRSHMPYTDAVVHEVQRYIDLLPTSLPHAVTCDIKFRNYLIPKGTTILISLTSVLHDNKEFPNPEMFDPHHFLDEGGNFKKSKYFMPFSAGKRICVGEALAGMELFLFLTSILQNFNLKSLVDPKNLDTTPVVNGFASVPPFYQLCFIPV
Sequence of Cytochrome P450 2D6 (P10635 whole entry): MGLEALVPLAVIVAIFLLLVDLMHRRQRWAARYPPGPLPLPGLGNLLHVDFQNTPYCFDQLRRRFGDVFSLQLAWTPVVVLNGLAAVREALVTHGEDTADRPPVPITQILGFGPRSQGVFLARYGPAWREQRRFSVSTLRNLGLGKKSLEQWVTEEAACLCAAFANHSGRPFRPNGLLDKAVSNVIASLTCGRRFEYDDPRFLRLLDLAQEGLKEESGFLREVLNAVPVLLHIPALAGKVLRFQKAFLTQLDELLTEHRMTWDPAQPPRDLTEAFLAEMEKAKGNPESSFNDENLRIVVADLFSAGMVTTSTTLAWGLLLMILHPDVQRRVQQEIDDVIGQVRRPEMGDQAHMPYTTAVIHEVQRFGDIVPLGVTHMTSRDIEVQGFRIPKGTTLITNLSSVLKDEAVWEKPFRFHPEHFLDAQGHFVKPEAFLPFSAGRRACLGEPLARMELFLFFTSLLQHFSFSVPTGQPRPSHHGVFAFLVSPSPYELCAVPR
T2 sequence (P08684 whole entry): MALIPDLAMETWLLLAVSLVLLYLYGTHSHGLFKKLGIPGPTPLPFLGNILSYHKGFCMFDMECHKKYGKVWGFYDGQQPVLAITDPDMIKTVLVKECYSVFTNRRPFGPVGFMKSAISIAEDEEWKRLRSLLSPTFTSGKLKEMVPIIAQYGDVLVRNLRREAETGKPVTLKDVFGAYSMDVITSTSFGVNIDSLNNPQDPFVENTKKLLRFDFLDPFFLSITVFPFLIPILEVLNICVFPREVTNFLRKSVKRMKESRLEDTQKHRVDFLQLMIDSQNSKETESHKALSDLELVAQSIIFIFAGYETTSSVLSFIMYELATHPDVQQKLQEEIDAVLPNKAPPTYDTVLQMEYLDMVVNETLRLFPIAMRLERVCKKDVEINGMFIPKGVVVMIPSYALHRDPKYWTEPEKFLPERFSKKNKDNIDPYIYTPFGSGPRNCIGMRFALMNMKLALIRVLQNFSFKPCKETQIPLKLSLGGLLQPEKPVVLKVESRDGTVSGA

Consider `CCC[C@@H](CCO)Nc1nc(N)nc2cnn(Cc3ncc(C4CC5(CNC5)C4)cc3OC)c12`, for which the IC50 (commonly the point on the concentration scale where inhibition reaches its midpoint) was greater than 17 µM in [1]; greater than 17 µM in data set [2]; greater than 50 µM in [4]; greater than 17 µM in data set [5]; greater than 17 µM in [6]; greater than 17 µM in data set [7]. The IC50 in [9], in data set [10] and in [13] was greater than 17 µM in each case. The IC50 at 72 h in data set [3] is greater than 25 µM. For the same molecule, the remaining at 10 min, 0.5 µM in data set [8] came out at 100%; in data set [14] it was 87%. Moreover, the EC50 (in general, the concentration that produces a half-maximal response) in data set [11] amounted to 1.6 µM; in data set [12], 0.37 µM.
For `CCCCNc1nc(N)nc2c(C3CC3)nn(Cc3ncc(C4CCNCC4)cc3OC)c12`, the IC50 in data set [1] was greater than 20 µM; in data set [2] it was greater than 20 µM; in [5], greater than 20 µM; in [6], 10.1 µM; in data set [7] it was greater than 20 µM; in data set [9], 10.1 µM. Further, the concentration for half-maximal inhibition (IC50) was greater than 20 µM in [10] and 17.6 µM in data set [13]. Further, in [3], the IC50 at 72 h came to 20 µM. Moreover, in [4], the “inhibition (INH)” value is recorded as “Not Active”. Besides, the remaining at 10 min, 0.5 µM in data set [8] was 30%; in [14], 97%. Also, the EC50 in data set [11] is greater than 5 µM; in [12], 0.461 µM.
For the molecule `CCC[C@@H](CCO)Nc1nc(N)nc2cnn(Cc3ncc(C4CCC5(CC4)CN(C(C)C)C5)cc3OC)c12`, the IC50 is greater than 20 µM in data set [1]; greater than 20 µM in data set [2]; 13 µM in [4]; greater than 20 µM in data set [5]; greater than 20 µM in data set [6]; greater than 20 µM in [7]. Besides, the IC50 in data set [9], in data set [10] and in [13] was greater than 20 µM each time. Also, the concentration for half-maximal inhibition (IC50) at 72 h in data set [3] was greater than 25 µM. Besides, the remaining at 10 min, 0.5 µM in data set [8] worked out at 87%; in data set [14] it was 88%. The EC50 was found to be 0.048 µM in data set [11] and 0.021 µM in data set [12].
As for `CCCCNc1nc(N)nc2cnn(Cc3ccc(C4CCNCC4)cc3OC(F)F)c12`, the “inhibition (INH)” value in [1] (human), in data set [2] (human), in [4], in data set [5] (human), in [7] (human) and in data set [9] (human) was “Not Active” in each case. For the same molecule, the “inhibition (INH)” value in data set [13] (human) is on record as “Not Active”. Moreover, the concentration for half-maximal inhibition (IC50) at 72 h in data set [3] was greater than 25 µM. The results for the remaining at 10 min, 0.5 µM in data set [8] and in data set [14] were 17% and 100%, respectively. Further, the values for the half-maximal effective concentration (EC50) in data set [11] and in [12] were 0.465 µM and 0.087 µM, respectively.

For the origin of these results see ChEMBL document CHEMBL5357082, “Identification and Optimization of Small Molecule Pyrazolopyrimidine TLR7 Agonists for Applications in Immuno-oncology” (ACS Med Chem Lett, 2024).
